Assay results: US20110269825A1, “Modified Thromboxane A2 Receptor Promoter Sequence” (priority 2008, published 2011)

Tests used:
Prm3 = details: cited from earlier work
Prm1 = details: cited from earlier work
[1] = test system: EA.hy 926 (human endothelial) cells; experiment: Dual luciferase genetic reporter assay in EA.hy 926 cells; type: cell-based
Procedure: (§1) HEL and EA.hy 926 cells were co-transfected with the various pGL3Basic-recombinant plasmids (2 mg), encoding firefly luciferase, along with pRL-TK (200 ng), encoding renilla luciferase, using DMRIE-C® transfection reagent. HEK293, WI-38, and 1° hAoSMCs were co-transfected with the pGL3Basic-recombinant plasmids (2 mg), along with pRL-TK (200 ng), using Effectene transfection reagent. In all cases, cells co-transfected with pRL-TK (200 ng) in the presence of either the pGL3Control vector (firefly luciferase gene under the control of the SV40 promoter; 2 mg) or the promoter-less pGL3Basic empty vector (2 mg), which served as positive and negative controls, respectively. Firefly and renilla luciferase expression was assayed some 48 h post-transfection using the Dual-Luciferase Reporter Assay System™, as described (Coyle et al., 2005). Relative firefly to renilla luciferase activity (arbitrary units) was calculated as a ratio and was expressed in relative luciferase units (RLU). To investigate the effect of over-expression of exon 5 (+ or −) or KTS (+ or −) isoforms of WT1 on Prm1-directed gene expression, HEL cells were co-transfected with either pGL3b:Prm1 or pGL3b:Prm1D (1.5 μg) plus 200 ng of pRL-TK along with either pcDNA3:WT1 (+/+), pcDNA3:WT1 (+/−), pcDNA3:WT1 (−/+), pcDNA3:WT1 (−/−) (0.5 μg), or as a control, pcDNA3 (0.5 μg). Cells were harvested 48 h post-transfection and assayed for luciferase activity, as above, or subjected to western blot or RT-PCR analysis. The plasmids pcDNA3:WT1 (+/+), pcDNA3:WT1 (+/−), pcDNA3:WT1 (−/+) and pcDNA3:WT1 (−/−) were generously donated by Dr. Charles T. Roberts JR, Oregon National Primate Research Center, Oregon, USA and have been previously described (Tajinda et al., 1999). For PMA studies, approximately 32 h post-transfection, the medium was supplemented with PMA (100 nM), with PMA (100 nM) and PD98059 (10 μM) or, as a control, with vehicle [0.1% (v/v) DMSO]. After 16 h, cells were assayed for firefly and renilla luciferase using the Dual-Luciferase Reporter Assay System™ as previously described (Coyle et al., 2005). […]

HEL 92.1.7 cells = experiment: Dual luciferase genetic reporter assay of promoter-directed luciferase expression in HEL cells; type: cell-based, human
Procedure: HEL and EA.hy 926 cells were co-transfected with the various pGL3Basic-recombinant plasmids (2 mg), encoding firefly luciferase, along with pRL-TK (200 ng), encoding renilla luciferase, using DMRIE-C® transfection reagent. HEK293, WI-38, and 1° hAoSMCs were co-transfected with the pGL3Basic-recombinant plasmids (2 mg), along with pRL-TK (200 ng), using Effectene transfection reagent. In all cases, cells co-transfected with pRL-TK (200 ng) in the presence of either the pGL3Control vector (firefly luciferase gene under the control of the SV40 promoter; 2 mg) or the promoter-less pGL3Basic empty vector (2 mg), which served as positive and negative controls, respectively. Firefly and renilla luciferase expression was assayed some 48 h post-transfection using the Dual-Luciferase Reporter Assay System™, as described (Coyle et al., 2005). Relative firefly to renilla luciferase activity (arbitrary units) was calculated as a ratio and was expressed in relative luciferase units (RLU). To investigate the effect of over-expression of exon 5 (+ or −) or KTS (+ or −) isoforms of WT1 on Prm1-directed gene expression, HEL cells were co-transfected with either pGL3b:Prm1 or pGL3b:Prm1D (1.5 μg) plus 200 ng of pRL-TK along with either pcDNA3:WT1 (+/+), pcDNA3:WT1 (+/−), pcDNA3:WT1 (−/+), pcDNA3:WT1 (−/−) (0.5 μg), or as a control, pcDNA3 (0.5 μg). Cells were harvested 48 h post-transfection and assayed for luciferase activity, as above, or subjected to western blot or RT-PCR analysis. The plasmids pcDNA3:WT1 (+/+), pcDNA3:WT1 (+/−), pcDNA3:WT1 (−/+) and pcDNA3:WT1 (−/−) were generously donated by Dr. Charles T. Roberts JR, Oregon National Primate Research Center, Oregon, USA and have been previously described (Tajinda et al., 1999). For PMA studies, approximately 32 h post-transfection, the medium was supplemented with PMA (100 nM), with PMA (100 nM) and PD98059 (10 μM) or, as a control, with vehicle [0.1% (v/v) DMSO]. After 16 h, cells were assayed for firefly and renilla luciferase using the Dual-Luciferase Reporter Assay System™ as previously described (Coyle et al., 2005). The plasmid pCMV5-NAB1, containing the entire coding sequence for NAB1, was generously donated by Dr. Gerald Thiel, University of Saarland Medical Center, Homburg, Germany, and has been described previously (Thiel et al., 2000). To investigate the effect of over-expression of NAB1 on the PMA-mediated induction of Prm1-directed gene expression, HEL cells were transiently co-transfected with pGL3b:Prm1 (2 μg) plus pRL-TK (200 ng) along with either pCMV5 (control) or pCMV:NAB1 (1 μg). Cells were harvested 48 h post-transfection and assayed for luciferase activity, as above.

[2] = test system: 1° hAoSMC (primary human aortic smooth muscle) cells; experiment: Dual luciferase genetic reporter assay in 1° hAoSMC; type: cell-based; details: for Mean firefly relative to renilla luciferase activity: co-transfected with pRL-TK
Procedure: as §1

[3] = test system: human tissue factor (hTF); experiment: Immunoblot analysis of promoter-driven human tissue factor expression in HEL cells; type: cell-based; details: 48 h post-transfection, compared with CMV promoter (pcDNA3.1(−):hTF) and pcDNA3.1(−)
Procedure: The expression of WT1, Sp1, Egr1, NF-E2, GATA-1 and Ets-1 proteins in HEL cells was confirmed by western blot analysis. Briefly, whole cell protein was resolved by SDS-PAGE (10% acrylamide gels) and transferred to polyvinylidene difluoride (PVDF) membrane according to standard methodology. Membranes were screened using anti-WT1, anti-NF-E2, anti-Sp1, anti-Egr1, anti-GATA-1 or anti-Ets-1 sera in 5% non fat dried milk in 1×TBS (0.01 M Tris/HCl, 0.1 M NaCl) for 2 h at room temperature followed by washing and screening using goat anti-rabbit horseradish peroxidase (sc-2204) followed by chemiluminescence detection, as described by the supplier (Roche Applied Science). For PMA studies, HEL cells were pre-incubated for the indicated amount of time with 100 nM PMA, with 10 μM PD98059, with 100 nM PMA plus 10 μM PD98059 or, as a control, with vehicle [0.1% (v/v) DMSO]. Whole cell protein (60 μg per lane) was resolved by SDS-PAGE (10% acrylamide gels) and transferred to polyvinylidene difluoride (PVDF) membrane according to standard methodology. […] Cells were harvested 48 hr post-transfection and aliquots ([…]) were analysed by SDS-PAGE/western blot analysis. As a positive control for hTF expression, […] of a commercial control Tissue-Factor Biomass was also analysed. […]

[4] = test system: WI-38 (human lung fibroblast) cells; experiment: Dual luciferase genetic reporter assay in WI-38 cells; type: cell-based
Procedure: as §1

[5] = test system: HEK (Human embryonic kidney) 293 cells; experiment: Dual luciferase genetic reporter assay in HEK 293 cells; type: cell-based
Procedure: as §1

Row | Molecule | Effect on transcriptional activity of Prm3 (Prm3) | Effect on Prm1 (Prm1) | Ratio of luciferase expression relative to that directed by pGL3Control ([1]; EA.hy 926) | Statistical significance of luciferase expression vs Prm1 ([1]; EA.hy 926, ↑ = increase) | Mean firefly relative to renilla luciferase activity ([1]; EA.hy 926 cells, co-transfected with pRL-TK) [RLU] | Ratio of luciferase expression relative to that directed by pGL3Control (HEL 92.1.7 cells; HEL) | Mean firefly relative to renilla luciferase activity (HEL 92.1.7 cells; HEL cells, co-transfected with pRL-TK, 48 h post-transfection) [RLU] | Increase in luciferase activity relative to Prm1 (−8500) (HEL 92.1.7 cells; HEL, 5′ deletion or site-directed mutation of Prm1) [fold] | Luciferase expression compared with another construct, in words (HEL 92.1.7 cells; HEL, comparator as named in the words or parent fragment) | Ratio of luciferase expression relative to that directed by pGL3Control [2] | Mean firefly relative to renilla luciferase activity [2] [RLU] | Mean firefly relative to renilla luciferase activity ([2]; listed as pGL3BPrm1GC-8146) [RLU] | Level of human tissue factor expression driven by the promoter [3] | Ratio of luciferase expression relative to that directed by pGL3Control ([4]; WI-38) | Statistical significance of luciferase expression vs Prm1 ([4]; WI-38, ↑ = increase) | Mean firefly relative to renilla luciferase activity ([4]; WI-38 cells, co-transfected with pRL-TK) [RLU] | Ratio of luciferase expression relative to that directed by pGL3Control ([5]; HEK) | Statistical significance of luciferase expression vs Prm1 ([5]; HEK 293, ↑ = increase) | Mean firefly relative to renilla luciferase activity ([5]; HEK 293 cells, co-transfected with pRL-TK) [RLU]
1 | CCCCC/C=C/C=C1/C(=O)C=C[C@@H]1C/C=C\CCCC(=O)O [15d-PGJ2, 15-deoxy-Δ12,14-prostaglandin J2] | suppressed the transcriptional activity of Prm3 | had no effect on Prm1 | – | – | – | – | – | – | – | – | – | – | – | – | – | – | – | – | –
2 | Prm1^GC*^(−8146): Prm1 with GC element at −8146 mutated (SEQ ID NO:13) (DNA CGGGGGTCGTGGGGTGGATGGCGGGCCAA; expressed or natural sequence; listed as Homo sapiens) | – | – | 0.06 | ns | 3.11 | 2.65 | 21.5 | 2.5 | significantly stronger promoters | 1.18 | 82.67 | 82.668 | significantly greater | 0.51 | ns | 59.01 | 0.69 | ns | 6.9
